Test results taken from PMC7180948, “New Insights into 4-Anilinoquinazolines as Inhibitors of Cardiac Troponin I–Interacting Kinase (TNNi3K)” (Molecules, 2020).

Legend:
Assay in all cases: biochemical
Set-up in all cases: KINOMEscan competition binding panel (Eurofins DiscoverX), single concentration, % inhibition
Conditions in all cases: read-out: 7 at 1 µM % inhibition
[1] = molecular target: T1, CAMK1B (Homo sapiens, UniProt Q6P2M8)
T1 construct: gene PNCK
Method in brief: (§1)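 KINOMEscan selectivity screen; >400 human kinases; compound at 1 µM, single concentration.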

[2] = molecular target: CDK4 (Homo sapiens, UniProt P11802)
Method in brief: as §1

[3] = molecular target: T2, DCAMKL2 (Homo sapiens, UniProt Q8N568)
T2 construct: gene DCLK2
Method in brief: as §1

[4] = molecular target: EGFR (Homo sapiens, UniProt P00533)
Method in brief: as §1

[5] = molecular target: EIF2AK1 (Homo sapiens, UniProt Q9BQI3)
Method in brief: as §1

[6] = molecular target: EPHA3 (Homo sapiens, UniProt P29320)
Chain of EPHA3 (P29320 whole entry): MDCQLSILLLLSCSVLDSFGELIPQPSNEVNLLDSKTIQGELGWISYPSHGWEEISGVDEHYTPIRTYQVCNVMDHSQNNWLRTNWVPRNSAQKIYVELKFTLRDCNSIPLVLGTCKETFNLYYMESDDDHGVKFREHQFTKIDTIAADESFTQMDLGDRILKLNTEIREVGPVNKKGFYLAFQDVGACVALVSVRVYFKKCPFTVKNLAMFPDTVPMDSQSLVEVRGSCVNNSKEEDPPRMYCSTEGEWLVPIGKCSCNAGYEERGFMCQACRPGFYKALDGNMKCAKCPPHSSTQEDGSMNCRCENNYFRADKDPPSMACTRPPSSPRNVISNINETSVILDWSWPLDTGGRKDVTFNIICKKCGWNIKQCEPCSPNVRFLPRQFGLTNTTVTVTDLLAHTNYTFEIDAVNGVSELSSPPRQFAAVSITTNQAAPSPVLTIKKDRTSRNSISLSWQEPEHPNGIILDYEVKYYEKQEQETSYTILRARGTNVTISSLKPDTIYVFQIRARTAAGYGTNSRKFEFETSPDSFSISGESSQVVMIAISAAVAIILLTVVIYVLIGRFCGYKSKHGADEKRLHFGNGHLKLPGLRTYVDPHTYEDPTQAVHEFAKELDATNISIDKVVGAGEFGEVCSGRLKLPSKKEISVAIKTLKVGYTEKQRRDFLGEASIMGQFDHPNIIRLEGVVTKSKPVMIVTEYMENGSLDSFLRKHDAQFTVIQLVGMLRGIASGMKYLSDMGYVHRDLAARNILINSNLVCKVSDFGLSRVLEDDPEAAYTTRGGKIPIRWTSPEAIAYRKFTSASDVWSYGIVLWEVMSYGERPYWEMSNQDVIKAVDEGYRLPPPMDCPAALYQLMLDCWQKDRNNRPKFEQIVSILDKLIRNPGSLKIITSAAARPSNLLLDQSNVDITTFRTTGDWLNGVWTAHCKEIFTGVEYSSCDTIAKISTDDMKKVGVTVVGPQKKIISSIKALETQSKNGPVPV
Method in brief: as §1

[7] = molecular target: FGFR1 (Homo sapiens, UniProt P11362)
Method in brief: as §1

[8] = molecular target: KIT-autoinhibited (Homo sapiens, UniProt P10721)
Method in brief: as §1

[9] = molecular target: LRRK2 (Homo sapiens, UniProt Q5S007)
Method in brief: as §1

[10] = molecular target: MAP4K3 (Homo sapiens, UniProt Q8IVH8)
Method in brief: as §1

[11] = molecular target: MAPKAPK5 (Homo sapiens, UniProt Q8IW41)
Method in brief: as §1

[12] = molecular target: MARK2 (Homo sapiens, UniProt Q7KZI7)
Chain of MARK2 (Q7KZI7 whole entry): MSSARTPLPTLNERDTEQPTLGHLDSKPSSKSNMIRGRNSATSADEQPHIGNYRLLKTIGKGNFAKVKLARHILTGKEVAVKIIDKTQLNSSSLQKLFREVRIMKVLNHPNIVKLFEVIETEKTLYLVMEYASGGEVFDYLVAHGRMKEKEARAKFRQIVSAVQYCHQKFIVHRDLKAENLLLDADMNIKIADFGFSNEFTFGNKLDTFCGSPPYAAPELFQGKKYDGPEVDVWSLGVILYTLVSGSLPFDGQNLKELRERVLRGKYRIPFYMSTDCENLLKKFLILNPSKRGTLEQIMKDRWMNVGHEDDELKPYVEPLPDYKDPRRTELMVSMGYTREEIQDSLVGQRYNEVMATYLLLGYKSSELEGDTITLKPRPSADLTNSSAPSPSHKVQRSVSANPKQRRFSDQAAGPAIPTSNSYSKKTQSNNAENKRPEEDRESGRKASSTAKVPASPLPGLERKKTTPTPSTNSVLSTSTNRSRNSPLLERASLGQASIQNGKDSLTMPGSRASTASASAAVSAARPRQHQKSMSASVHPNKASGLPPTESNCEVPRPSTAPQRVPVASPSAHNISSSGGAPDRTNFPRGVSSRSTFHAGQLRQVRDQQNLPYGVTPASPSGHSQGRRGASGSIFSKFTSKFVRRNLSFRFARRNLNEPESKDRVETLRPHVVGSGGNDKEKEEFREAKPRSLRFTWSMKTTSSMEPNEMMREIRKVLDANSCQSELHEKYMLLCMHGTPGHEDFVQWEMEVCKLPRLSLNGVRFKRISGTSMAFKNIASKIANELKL
Method in brief: as §1

[13] = molecular target: NEK5 (Homo sapiens, UniProt Q6P3R8)
Method in brief: as §1

[14] = molecular target: T3, PCTK2 (Homo sapiens, UniProt Q00537)
T3 construct: gene CDK17
Method in brief: as §1

[15] = molecular target: PDPK1 (Homo sapiens, UniProt O15530)
Method in brief: as §1

[16] = molecular target: PHKG2 (Homo sapiens, UniProt P15735)
Method in brief: as §1

[17] = molecular target: PIK3C2G (Homo sapiens, UniProt O75747)
Method in brief: as §1

[18] = molecular target: PIK3CA(E545A) (Homo sapiens, UniProt P42336, E545A)
Method in brief: as §1

[19] = molecular target: T4, PIP5K2B (Homo sapiens, UniProt P78356)
T4 construct: gene PIP4K2B
Method in brief: as §1

[20] = molecular target: PRKCH (Homo sapiens, UniProt P24723)
Method in brief: as §1

[21] = molecular target: T5, QSK (Homo sapiens, UniProt Q9Y2K2)
T5 construct: gene SIK3
Method in brief: as §1

[22] = molecular target: ROS1 (Homo sapiens, UniProt P08922)
Method in brief: as §1

[23] = molecular target: SRC (Homo sapiens, UniProt P12931)
Chain of SRC (P12931 whole entry): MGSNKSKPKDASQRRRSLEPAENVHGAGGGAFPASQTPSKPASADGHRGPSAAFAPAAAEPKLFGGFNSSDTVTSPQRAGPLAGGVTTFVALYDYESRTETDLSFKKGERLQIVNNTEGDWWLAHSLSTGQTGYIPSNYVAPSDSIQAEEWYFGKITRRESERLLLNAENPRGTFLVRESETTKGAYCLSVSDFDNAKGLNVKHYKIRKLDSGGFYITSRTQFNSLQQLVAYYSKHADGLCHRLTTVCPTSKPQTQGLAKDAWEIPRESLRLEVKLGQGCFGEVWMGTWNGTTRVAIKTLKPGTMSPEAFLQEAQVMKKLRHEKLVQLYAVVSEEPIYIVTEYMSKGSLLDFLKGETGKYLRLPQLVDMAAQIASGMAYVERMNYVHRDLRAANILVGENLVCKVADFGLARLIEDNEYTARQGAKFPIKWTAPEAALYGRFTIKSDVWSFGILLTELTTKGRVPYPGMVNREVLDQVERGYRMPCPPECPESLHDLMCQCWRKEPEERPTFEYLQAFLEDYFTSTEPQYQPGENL
Method in brief: as §1

[24] = molecular target: T6, TRKA (Homo sapiens, UniProt P04629)
T6 construct: gene NTRK1
Method in brief: as §1

[25] = molecular target: WNK1 (Homo sapiens, UniProt Q9H4A3)
Chain of WNK1 (Q9H4A3 whole entry): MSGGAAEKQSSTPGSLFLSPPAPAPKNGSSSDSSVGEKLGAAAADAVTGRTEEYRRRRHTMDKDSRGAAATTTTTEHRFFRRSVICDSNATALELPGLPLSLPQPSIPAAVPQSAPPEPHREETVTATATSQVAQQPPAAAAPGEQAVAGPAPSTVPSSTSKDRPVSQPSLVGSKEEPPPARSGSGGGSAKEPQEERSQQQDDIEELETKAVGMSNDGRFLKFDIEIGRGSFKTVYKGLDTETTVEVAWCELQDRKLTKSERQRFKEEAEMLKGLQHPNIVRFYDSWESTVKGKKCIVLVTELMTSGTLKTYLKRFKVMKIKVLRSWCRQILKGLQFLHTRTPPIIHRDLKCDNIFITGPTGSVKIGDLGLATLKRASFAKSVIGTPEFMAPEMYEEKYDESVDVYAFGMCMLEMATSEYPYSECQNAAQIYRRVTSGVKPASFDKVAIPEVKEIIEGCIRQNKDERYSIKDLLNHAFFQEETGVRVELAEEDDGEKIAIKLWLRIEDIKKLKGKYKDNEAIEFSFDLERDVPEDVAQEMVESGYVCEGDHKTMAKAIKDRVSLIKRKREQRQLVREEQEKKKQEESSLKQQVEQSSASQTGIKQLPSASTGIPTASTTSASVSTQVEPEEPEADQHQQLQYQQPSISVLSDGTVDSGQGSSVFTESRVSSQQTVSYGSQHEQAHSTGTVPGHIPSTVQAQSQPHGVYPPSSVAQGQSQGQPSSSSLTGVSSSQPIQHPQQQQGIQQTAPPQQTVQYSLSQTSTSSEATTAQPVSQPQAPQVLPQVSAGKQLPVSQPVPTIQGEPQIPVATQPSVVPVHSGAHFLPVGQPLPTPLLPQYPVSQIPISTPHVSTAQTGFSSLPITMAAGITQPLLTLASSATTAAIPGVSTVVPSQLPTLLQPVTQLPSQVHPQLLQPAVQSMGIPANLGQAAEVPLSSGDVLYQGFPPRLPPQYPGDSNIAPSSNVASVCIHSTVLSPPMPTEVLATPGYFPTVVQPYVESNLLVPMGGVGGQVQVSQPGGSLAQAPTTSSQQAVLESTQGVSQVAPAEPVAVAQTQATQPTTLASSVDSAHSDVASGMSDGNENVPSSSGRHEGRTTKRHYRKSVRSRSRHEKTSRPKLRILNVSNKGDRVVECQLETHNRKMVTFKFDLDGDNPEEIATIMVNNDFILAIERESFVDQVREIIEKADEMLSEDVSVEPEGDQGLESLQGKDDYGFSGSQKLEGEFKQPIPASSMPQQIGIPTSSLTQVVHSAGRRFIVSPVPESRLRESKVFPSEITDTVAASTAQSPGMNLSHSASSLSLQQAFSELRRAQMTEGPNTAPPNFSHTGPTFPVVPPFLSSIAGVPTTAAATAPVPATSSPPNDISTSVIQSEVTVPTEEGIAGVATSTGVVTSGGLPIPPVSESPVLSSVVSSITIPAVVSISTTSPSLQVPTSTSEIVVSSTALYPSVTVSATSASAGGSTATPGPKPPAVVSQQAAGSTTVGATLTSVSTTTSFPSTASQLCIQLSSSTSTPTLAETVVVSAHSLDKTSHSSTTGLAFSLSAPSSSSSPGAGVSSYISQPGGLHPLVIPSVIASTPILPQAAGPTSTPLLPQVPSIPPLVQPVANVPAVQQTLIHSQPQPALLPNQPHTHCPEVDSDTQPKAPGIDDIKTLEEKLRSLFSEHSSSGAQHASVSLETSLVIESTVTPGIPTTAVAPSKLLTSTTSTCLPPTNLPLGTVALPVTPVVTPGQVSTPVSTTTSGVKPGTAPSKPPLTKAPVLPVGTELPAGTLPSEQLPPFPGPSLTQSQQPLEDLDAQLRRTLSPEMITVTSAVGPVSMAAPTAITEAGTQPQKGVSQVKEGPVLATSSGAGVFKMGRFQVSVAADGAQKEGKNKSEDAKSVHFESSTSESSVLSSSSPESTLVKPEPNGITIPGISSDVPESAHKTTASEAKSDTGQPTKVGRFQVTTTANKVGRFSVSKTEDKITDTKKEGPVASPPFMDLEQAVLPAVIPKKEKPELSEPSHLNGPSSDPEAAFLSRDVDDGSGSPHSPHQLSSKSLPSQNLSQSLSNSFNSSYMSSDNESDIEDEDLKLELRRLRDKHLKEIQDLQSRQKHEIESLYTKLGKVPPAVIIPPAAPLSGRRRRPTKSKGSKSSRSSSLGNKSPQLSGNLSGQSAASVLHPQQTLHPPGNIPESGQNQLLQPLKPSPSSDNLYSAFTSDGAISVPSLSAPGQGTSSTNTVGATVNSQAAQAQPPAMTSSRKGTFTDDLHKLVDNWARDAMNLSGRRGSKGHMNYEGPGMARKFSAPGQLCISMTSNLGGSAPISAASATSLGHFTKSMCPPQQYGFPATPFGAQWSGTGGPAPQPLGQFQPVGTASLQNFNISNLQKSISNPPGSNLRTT
Method in brief: as §1

T1 sequence (Q6P2M8 whole entry): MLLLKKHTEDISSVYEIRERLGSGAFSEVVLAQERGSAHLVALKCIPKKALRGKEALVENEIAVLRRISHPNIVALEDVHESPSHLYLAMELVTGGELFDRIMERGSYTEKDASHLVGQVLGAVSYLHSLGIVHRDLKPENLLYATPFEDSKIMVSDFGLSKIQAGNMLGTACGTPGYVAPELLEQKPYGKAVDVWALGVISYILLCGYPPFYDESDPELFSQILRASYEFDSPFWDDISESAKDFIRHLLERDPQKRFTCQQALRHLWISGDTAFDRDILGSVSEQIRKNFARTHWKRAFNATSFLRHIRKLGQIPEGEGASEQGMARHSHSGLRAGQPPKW

## CNS(=O)(=O)c1ccc(N(C)C)c(Nc2ncnc3cc(OC)c(OC)cc23)c1 [compound 7, 3-((6,7-dimethoxyquinazolin-4-yl)amino)-4-(dimethylamino)-N-methylbenzenesulfonamide]
[1]
  inhibition at 1 µM: 46%
[2]
  inhibition at 1 µM: 0%
[3]
  inhibition at 1 µM: 0%
[4]
  inhibition at 1 µM: 0%
[5]
  inhibition at 1 µM: 0%
[6]
  inhibition at 1 µM: 5%
[7]
  inhibition at 1 µM: 20%
[8]
  inhibition at 1 µM: 22%
[9]
  inhibition at 1 µM: 9%
[10]
  inhibition at 1 µM: 0%
[11]
  inhibition at 1 µM: 27%
[12]
  inhibition at 1 µM: 0%
[13]
  inhibition at 1 µM: 25%
[14]
  inhibition at 1 µM: 0%
[15]
  inhibition at 1 µM: 0%
[16]
  inhibition at 1 µM: 0%
[17]
  inhibition at 1 µM: 20%
[18]
  inhibition at 1 µM: 0%
[19]
  inhibition at 1 µM: 0%
[20]
  inhibition at 1 µM: 13%
[21]
  inhibition at 1 µM: 52%
[22]
  inhibition at 1 µM: 0%
[23]
  inhibition at 1 µM: 0%
[24]
  inhibition at 1 µM: 22%
[25]
  inhibition at 1 µM: 62%
